Laboratory results as given in the NIST ThermoML archive (doi:10.1016/j.jct.2008.12.015).
Numbers after ± are expanded uncertainties.

Key:
[1] = Crystal; for mass density: 298.15 K, 101.33 kPa; for Normal melting temperature: DTA
[2] = molar enthalpy of vaporization or sublimation; conditions: Static calorimetry

mass density [1]	Normal melting temperature [1]	molar enthalpy ([2]; 399.15 K, Crystal)	molar enthalpy ([2]; 322.65 K, Crystal)	molar enthalpy ([2]; 334 K, Liquid)	SMILES
950 kg/m3	127.7 ± 0.4 °C	23.8 ± 0.406 kcal/mol	–	–	CC(C)(C)c1ccc(-c2ccc(C(C)(C)C)cc2)cc1 [4,4'-bis(1,1-dimethylethyl)-1,1'-biphenyl]
1030 kg/m3	51.6 ± 0.4 °C	–	23.3 ± 0.382 kcal/mol	18.4 ± 0.206 kcal/mol	CC(C)(C)c1ccc(-c2ccccc2)cc1 [4-(1,1-dimethylethyl)-1,1'-biphenyl]
